Data published in the supplement of paper PMC10307832.

Key:
Experiment in all cases: relative viability (nuclei count vs DMSO), 5 days (fraction); higher = more cells survive
Nelarabine + Decitabine = compound: COc1nc(N)nc2c1ncn2[C@@H]1O[C@H](CO)[C@@H](O)[C@@H]1O [Nelarabine] + Nc1ncn([C@H]2C[C@H](O)[C@@H](CO)O2)c(=O)n1 [Decitabine] (partner 2 µM)
Method in brief: (§1)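 Relative viability is defined as nuclei in treated wells over nuclei in vehicle wells. Duplicate plates were run and medians reported. Lung cancer cell lines in 1536-well plates were dosed by pin tool one day after seeding, with one drug or with a fixed anchor-drug dose plus five library-drug doses (not always all listed) in √10 steps, and nuclei were counted after 5 days.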

Nelarabine + Crizotinib = compound: COc1nc(N)nc2c1ncn2[C@@H]1O[C@H](CO)[C@@H](O)[C@@H]1O [Nelarabine] + C[C@@H](Oc1cc(-c2cnn(C3CCNCC3)c2)cnc1N)c1c(Cl)ccc(F)c1Cl [Crizotinib] (partner 1 µM)
Method in brief: as §1

[1] = compound: C=CCn1c(=O)c2cnc(Nc3ccc(N4CCN(C)CC4)cc3)nc2n1-c1cccc(C(C)(C)O)n1 [Adavosertib] + CC(=O)c1c(C)c2cnc(Nc3ccc(N4CCNCC4)cn3)nc2n(C2CCCC2)c1=O [Palbociclib] (partner 0.5 µM)
Method in brief: as §1

Adavosertib + AZD7762 = compound: C=CCn1c(=O)c2cnc(Nc3ccc(N4CCN(C)CC4)cc3)nc2n1-c1cccc(C(C)(C)O)n1 [Adavosertib] + NC(=O)Nc1cc(-c2cccc(F)c2)sc1C(=O)N[C@H]1CCCNC1 [AZD7762] (partner 0.2 µM)
Method in brief: as §1

Cell Line	relative viability (Nelarabine + Decitabine; first compound 0.01 µM)	relative viability (Nelarabine + Decitabine; first compound 0.03162 µM)	relative viability (Nelarabine + Decitabine; first compound 0.1 µM)	relative viability (Nelarabine + Decitabine; first compound 0.3162 µM)	relative viability (Nelarabine + Decitabine; first compound 1 µM)	relative viability (Nelarabine + Crizotinib; first compound 0.01 µM)	relative viability (Nelarabine + Crizotinib; first compound 0.03162 µM)	relative viability (Nelarabine + Crizotinib; first compound 0.1 µM)	relative viability (Nelarabine + Crizotinib; first compound 0.3162 µM)	relative viability (Nelarabine + Crizotinib; first compound 1 µM)	relative viability ([1]; first compound 0.01 µM)	relative viability ([1]; first compound 0.03162 µM)	relative viability ([1]; first compound 0.1 µM)	relative viability ([1]; first compound 0.3162 µM)	relative viability (Adavosertib + AZD7762; first compound 0.01 µM)	relative viability (Adavosertib + AZD7762; first compound 0.03162 µM)	relative viability (Adavosertib + AZD7762; first compound 0.1 µM)	relative viability (Adavosertib + AZD7762; first compound 0.3162 µM)
NCI-H2087	0.248	0.28	0.309	0.335	0.3	1.22	0.965	0.88	0.819	0.84	0.218	0.217	0.263	0.243	1.37	1.21	1.3	1.03
LU99A	1.02	0.91	0.971	0.886	0.935	0.557	0.534	0.582	0.627	0.622	0.404	0.373	0.393	0.409	0.295	0.196	0.184	0.122
NCI-H1993	0.667	0.507	0.526	0.578	0.65	0.96	0.891	0.775	0.93	1.02	0.656	0.701	0.725	0.934	0.905	0.828	0.697	0.807
NCI-H2347	0.576	0.596	0.615	0.626	0.593	0.812	0.547	0.654	0.649	0.833	0.41	0.419	0.444	0.44	0.791	0.674	0.476	0.329
NCI-H1734	0.551	0.458	0.491	0.486	0.499	0.694	0.668	0.568	0.772	0.804	0.332	0.326	0.353	0.375	0.379	0.315	0.202	0.168
HCC-44	0.942	0.924	0.863	1.01	0.928	0.989	0.782	0.783	0.819	0.739	0.989	1.01	1.03	0.966	0.989	0.971	1.02	0.902
LCLC-97TM1	–	–	0.274	0.279	0.241	0.481	0.364	0.199	0.401	0.383	0.25	0.213	0.237	0.294	0.289	0.264	0.138	0.0845
HOP-62	0.214	0.194	0.23	0.182	0.229	1.08	0.933	0.998	0.91	0.831	0.496	0.513	0.59	0.486	0.697	0.382	0.364	0.116
NCI-H2405	0.674	0.686	0.745	0.816	0.721	0.918	0.824	0.769	0.784	0.818	–	0.492	0.555	0.58	–	0.663	0.331	0.276
HCC-78	0.713	0.639	–	0.843	0.737	0.379	0.365	–	0.34	0.338	0.531	0.525	0.508	0.428	0.512	0.603	0.564	0.368
NCI-H1915	0.261	0.266	0.258	0.27	0.268	1.23	0.941	0.953	0.916	0.881	0.535	0.564	0.645	0.644	0.724	0.657	0.566	0.238
NCI-H1666	0.651	0.843	0.736	0.754	0.668	1.03	0.679	0.949	0.975	1.03	0.613	0.64	0.662	0.699	0.766	0.829	0.803	0.625
NCI-H441	0.214	0.222	0.23	0.231	0.22	0.715	0.856	0.723	0.836	0.716	0.234	0.25	0.241	0.197	1.12	0.989	0.658	0.355
LC-2-ad	0.904	0.865	0.757	0.932	0.73	0.497	0.404	0.444	0.421	0.447	0.535	0.467	0.55	0.519	0.792	0.846	0.817	0.62
LCLC-103H	0.924	0.716	0.809	0.759	0.638	1.12	1.03	1.07	1.08	1.02	0.498	0.478	0.469	0.464	0.786	0.783	0.775	0.408
NCI-H727	0.819	0.938	0.918	0.769	0.463	1.05	1.06	0.765	0.94	0.865	0.584	0.699	0.637	0.658	0.636	0.406	0.445	0.394
HCC-827	0.24	0.315	0.306	0.355	0.289	0.902	0.811	0.748	0.682	0.607	0.467	0.452	0.533	0.532	0.196	0.166	0.179	0.15
